For assay [1], the target named is T1, HIV integrase (Human immunodeficiency virus type 1 group M subtype B, UniProt P04585). Description: biochemical. The following applies: read-out: Inhibition of 3' processing activity (IC50).
For assay [2], the target named is T1, HIV integrase. The assay is described as follows: biochemical. The settings on record: read-out: Inhibition of strand transfer (IC50).
Assay [3] has as its target HIV reverse transcriptase (Human immunodeficiency virus type 1 group M subtype B, UniProt P03366). Description: Reverse transcriptase scintillation proximity assay (Example 4, Table 2). The settings on record: for remaining activity at 10 µM: 0.05 h, 10 μM inhibitor, relative to dimethyl sulfoxide = 100%, read-out: % RT activity remaining at 10 μM; for IC50: read-out: IC50 (RT activity). Type of assay: biochemical. On the procedure: Reverse transcriptase ("RT") activity is measured using a scintillation proximity assay kit available from Amersham Life Sciences, Inc., which uses a biotin/streptavidin bead capture system. RNA-dependent polymerase activity is measured using purified […] and a synthetic 17mer/50mer RNA-DNA template-primer containing biotin at the 5' end of the DNA. The template-primer, buffer, dNTP, and inhibitor are incubated for 10 minutes at 37° C. before the RT is added. The final 100 μl reaction mixture contains: 39 nm of template primer, buffer (40 mM tris HCl at pH 8.0, 10 mM MgCl2, 60 mM KCl, 10 mM dithiothreitol); 75 nM of each dNTP except dTTP; 25 nM dTTP and 35 nM tritium labeled d*TTP; 10 μM inhibitor; and 1.0-2.0 μg of RT. After three minute incubation, the reaction is quenched with 40 μl of 0.56M EDTA. Then 10 μl of streptavidin SPA beads (in suspension) are added and incubated at 37° C. for 10 minutes. Finally, 850 μl of a buffer containing 10 mM Tris HCl pH 7.4 and 0.15M NaCl is added. The signal is produced by biotinylated polymers incorporating d*TTP binding to the streptavidin beads which stimulate the scintillant. The amount of d*TTP incorporated in the polymer is measured with a scintillation counter.
Compounds showing good inhibition will give a low number of counts/min (cpm). This number is related to a standard, dimethyl sulfoxide, which is given an arbitrary 100% relative activity. All cpm data in a single run are given a percent of this standard.

Usually IC50 stands for the point on the concentration scale where inhibition reaches its midpoint. As usually defined, the remaining activity is the activity still measured, relative to the control.

Like-named read-outs stand apart in the source and are kept apart here. Where only a bound is given, the exact number is not on record here.

Regarding `O=C(Nc1ccc2c(O)c(N=Nc3ccccc3)c(S(=O)(=O)O)cc2c1)Nc1ccc2c(O)c(N=Nc3ccccc3)c(S(=O)(=O)O)cc2c1` [Compound 62], the IC50 at HIV integrase [1] is 400 nM; at HIV integrase [2], 500 nM. On to `CCOC(=O)c1c[nH]nc1N=Nc1c(S(=O)(=O)O)cc2cc(NC(=O)Nc3ccc4c(O)c(N=Nc5n[nH]cc5C(=O)OCC)c(S(=O)(=O)O)cc4c3)ccc2c1O` [Compound 64], for which the half-inhibitory concentration (IC50) on HIV integrase [1] and at HIV integrase [2] was above 3000 nM in each case. `O=C(Nc1ccc2c(O)c(N=Nc3ncn[nH]3)c(S(=O)(=O)O)cc2c1)Nc1ccc2c(O)c(N=Nc3ncn[nH]3)c(S(=O)(=O)O)cc2c1` [Compound 65]: the IC50 on HIV integrase [1] was determined as 800 nM; on HIV integrase [2], 500 nM. Take `COc1cc(N=Nc2c(S(=O)(=O)O)cc3cc(NC(=O)Nc4ccc5c(O)c(N=Nc6cc(OC)c(OC)c(OC)c6)c(S(=O)(=O)O)cc5c4)ccc3c2O)cc(OC)c1OC` [Compound 66]: the results for the IC50 at HIV integrase [1] and on HIV integrase [2] were 800 nM and 500 nM, respectively. `O=C(Nc1ccc2c(O)c(N=Nc3ccc(C(=O)O)cc3)c(S(=O)(=O)O)cc2c1)Nc1ccc2c(O)c(N=Nc3ccc(C(=O)O)cc3)c(S(=O)(=O)O)cc2c1` [Compound 67]: the IC50 came to 90 nM at HIV integrase [1] and 250 nM on HIV integrase [2]. For the compound `O=C(O)CCc1ccc(N=Nc2c(S(=O)(=O)O)cc3cc(NC(=O)Nc4ccc5c(O)c(N=Nc6ccc(CCC(=O)O)cc6)c(S(=O)(=O)O)cc5c4)ccc3c2O)cc1` [Compound 68], the IC50 on HIV integrase [1] and at HIV integrase [2] was 400 nM in each case. `O=C(Nc1ccc2c(O)c(N=Nc3ccc(F)cc3)c(S(=O)(=O)O)cc2c1)Nc1ccc2c(O)c(N=Nc3ccc(F)cc3)c(S(=O)(=O)O)cc2c1` [Compound 69]: the values for the IC50 on HIV integrase [1] and on HIV integrase [2] were 700 nM and 900 nM, respectively. The matching figures for `O=C(Nc1ccc2c(O)c(N=Nc3ccc(Cl)cc3)c(S(=O)(=O)O)cc2c1)Nc1ccc2c(O)c(N=Nc3ccc(Cl)cc3)c(S(=O)(=O)O)cc2c1` [Compound 70]: above 3000 nM and above 3000 nM. On to `O=C(Nc1ccc2c(O)c(N=Nc3ccc(I)cc3)c(S(=O)(=O)O)cc2c1)Nc1ccc2c(O)c(N=Nc3ccc(I)cc3)c(S(=O)(=O)O)cc2c1` [Compound 71], for which the IC50 is 900 nM at HIV integrase [1] and 1000 nM at HIV integrase [2]. For `CC(=O)Nc1ccc(N=Nc2c(S(=O)(=O)O)cc3cc(NC(=O)Nc4ccc5c(O)c(N=Nc6ccc(NC(C)=O)cc6)c(S(=O)(=O)O)cc5c4)ccc3c2O)cc1` [Compound 72], the IC50 on HIV integrase [1] was found to be 1000 nM; on HIV integrase [2], 500 nM. For `COc1ccc(N=Nc2c(S(=O)(=O)O)cc3cc(NC(=O)Nc4ccc5c(O)c(N=Nc6ccc(OC)cc6)c(S(=O)(=O)O)cc5c4)ccc3c2O)cc1` [Compound 73] the same measures were 1000 nM and 600 nM.

In the case of `C=Cc1ccc(N=Nc2c(S(=O)(=O)O)cc3cc(NC(=O)Nc4ccc5c(O)c(N=Nc6ccc(C=C)cc6)c(S(=O)(=O)O)cc5c4)ccc3c2O)cc1` [Compound 74], the IC50 was 2000 nM on HIV integrase [1] and 1500 nM on HIV integrase [2].

On to `O=C(O)Cc1ccc(N=Nc2c(S(=O)(=O)O)cc3cc(NC(=O)C(=O)Nc4ccc5c(O)c(N=Nc6ccc(CC(=O)O)cc6)c(S(=O)(=O)O)cc5c4)ccc3c2O)cc1` [Compound 93], for which the half-maximal inhibitory concentration (IC50) at HIV integrase [1] came out at 900 nM; at HIV integrase [2], 500 nM. For the compound `Cc1ccc(CO)cc1N=Nc1c(S(=O)(=O)O)cc2cc(NC(=O)c3ccc(C(=O)Nc4ccc5c(O)c(N=Nc6cc(CO)ccc6C)c(S(=O)(=O)O)cc5c4)cc3)ccc2c1O` [Compound 180], the remaining activity at 10 µM in assay [3] amounted to 45%. Regarding `O=C(Nc1ccc2c(O)c(N=Nc3ccc(Cl)cc3)c(S(=O)(=O)O)cc2c1)c1ccc(C(=O)Nc2ccc3c(O)c(N=Nc4ccc(Cl)cc4)c(S(=O)(=O)O)cc3c2)cc1` [Compound 181], the remaining activity at 10 µM in assay [3] stood at 43%. Turning to `O=C(Nc1ccc2c(O)c(N=Nc3ccc(Br)cc3Br)c(S(=O)(=O)O)cc2c1)c1ccc(C(=O)Nc2ccc3c(O)c(N=Nc4ccc(Br)cc4Br)c(S(=O)(=O)O)cc3c2)cc1` [Compound 182], in assay [3], the remaining activity at 10 µM came out at 35%. With `Cc1cc2nc(N=Nc3c(S(=O)(=O)O)cc4cc(NC(=O)c5ccc(C(=O)Nc6ccc7c(O)c(N=Nc8nc9cc(C)c(C)cc9[nH]8)c(S(=O)(=O)O)cc7c6)cc5)ccc4c3O)[nH]c2cc1C` [Compound 183], in assay [3], the remaining activity at 10 µM came out at 36%. Regarding `O=c1c(Nc2ccc3c(O)cc(S(=O)(=O)O)cc3c2)c(Nc2ccc3c(O)cc(S(=O)(=O)O)cc3c2)c1=O` [Compound 184], the IC50 in assay [3] worked out at 1000 nM. As to `O=C(O)/C=C/c1ccc(N=Nc2c(S(=O)(=O)O)cc3cc(Nc4c(Nc5ccc6c(O)c(N=Nc7ccc(/C=C/C(=O)O)cc7)c(S(=O)(=O)O)cc6c5)c(=O)c4=O)ccc3c2O)cc1` [Compound 185], in assay [3], the remaining activity at 10 µM worked out at 0.6%. Turning to `O=C(O)c1ccc(N=Nc2c(S(=O)(=O)O)cc3cc(Nc4c(Nc5ccc6c(O)c(N=Nc7ccc(C(=O)O)cc7)c(S(=O)(=O)O)cc6c5)c(=O)c4=O)ccc3c2O)cc1` [Compound 186], in assay [3], the remaining activity at 10 µM is 0.5%.

`O=C(O)Cc1ccc(N=Nc2c(S(=O)(=O)O)cc3cc(Nc4c(Nc5ccc6c(O)c(N=Nc7ccc(CC(=O)O)cc7)c(S(=O)(=O)O)cc6c5)c(=O)c4=O)ccc3c2O)cc1` [Compound 187]: the remaining activity at 10 µM in assay [3] was 0.3%. Still for that read-out and setting: as for `O=C(O)CCc1ccc(N=Nc2c(S(=O)(=O)O)cc3cc(Nc4c(Nc5ccc6c(O)c(N=Nc7ccc(CCC(=O)O)cc7)c(S(=O)(=O)O)cc6c5)c(=O)c4=O)ccc3c2O)cc1` [Compound 188], the figure is 0.3%; as for `O=C(O)CCCc1ccc(N=Nc2c(S(=O)(=O)O)cc3cc(Nc4c(Nc5ccc6c(O)c(N=Nc7ccc(CCCC(=O)O)cc7)c(S(=O)(=O)O)cc6c5)c(=O)c4=O)ccc3c2O)cc1` [Compound 189], 1%. As for `O=C(O)c1cccc(N=Nc2c(S(=O)(=O)O)cc3cc(Nc4c(Nc5ccc6c(O)c(N=Nc7cccc(C(=O)O)c7)c(S(=O)(=O)O)cc6c5)c(=O)c4=O)ccc3c2O)c1` [Compound 190], the remaining activity at 10 µM in assay [3] stood at 0.5%. Same read-out and setting: for `O=C(O)CC(C(=O)O)c1ccc(N=Nc2c(S(=O)(=O)O)cc3cc(Nc4c(Nc5ccc6c(O)c(N=Nc7ccc(C(CC(=O)O)C(=O)O)cc7)c(S(=O)(=O)O)cc6c5)c(=O)c4=O)ccc3c2O)cc1` (stereo not shown) [Compound 191] the value was 0.3%; for `Cc1cc(C(=O)O)ccc1N=Nc1c(S(=O)(=O)O)cc2cc(Nc3c(Nc4ccc5c(O)c(N=Nc6ccc(C(=O)O)cc6C)c(S(=O)(=O)O)cc5c4)c(=O)c3=O)ccc2c1O` [Compound 192], 0.3%; for `COc1cc(C(=O)O)ccc1N=Nc1c(S(=O)(=O)O)cc2cc(Nc3c(Nc4ccc5c(O)c(N=Nc6ccc(C(=O)O)cc6OC)c(S(=O)(=O)O)cc5c4)c(=O)c3=O)ccc2c1O` [Compound 193], 0.4%. Turning to `O=C(O)c1c(F)c(F)c(N=Nc2c(S(=O)(=O)O)cc3cc(Nc4c(Nc5ccc6c(O)c(N=Nc7c(F)c(F)c(C(=O)O)c(F)c7F)c(S(=O)(=O)O)cc6c5)c(=O)c4=O)ccc3c2O)c(F)c1F` [Compound 194], the IC50 in assay [3] stood at 440 nM.

`O=c1c(Nc2ccc3cc(S(=O)(=O)O)cc(O)c3c2)c(Nc2ccc3cc(S(=O)(=O)O)cc(O)c3c2)c1=O` [Compound 198]: the remaining activity at 10 µM in assay [3] stood at 37%. `O=C(O)/C=C/c1ccc(N=Nc2c(S(=O)(=O)O)cc3ccc(Nc4c(Nc5ccc6cc(S(=O)(=O)O)c(N=Nc7ccc(/C=C/C(=O)O)cc7)c(O)c6c5)c(=O)c4=O)cc3c2O)cc1` [Compound 199]: in assay [3], the remaining activity at 10 µM worked out at 1.2%.

The values are drawn from US6140368A, “Naphthols useful in antiviral methods” (The Regents of the University of California, priority 1998, dated 2000).
